Experimental data as given in the NIST ThermoML archive (doi:10.1016/j.jct.2016.03.034).
Numbers after ± are expanded uncertainties.

Test: xn = mol fraction of the nth substance listed
Details: 100 kPa, Liquid; for viscosity: Capillary tube (Ostwald / Ubbelohde) method; for mass density: Vibrating tube method

O=C1CCCO1 [γ-butyrolactone] + CCCCCCCCn1cc[n+](C)c1.O=S(=O)([N-]S(=O)(=O)C(F)(F)F)C(F)(F)F
Details | mass density, 293.15 K [kg/m3] | mass density, 298.15 K [kg/m3] | mass density, 303.15 K [kg/m3] | mass density, 308.15 K [kg/m3] | viscosity, 293.15 K [mPa·s] | viscosity, 298.15 K [mPa·s] | viscosity, 303.15 K [mPa·s] | viscosity, 308.15 K [mPa·s]
x2 = 0 | 1129.49 ± 9 | 1124.59 ± 9 | 1119.68 ± 9 | 1114.78 ± 8.9 | 1.86 ± 0.08 | 1.71 ± 0.07 | 1.58 ± 0.06 | 1.47 ± 0.06
x2 = 0.0486 | 1168.04 ± 9.4 | 1163.25 ± 9.4 | 1158.47 ± 9.3 | – | 2.77 ± 0.12 | 2.53 ± 0.11 | 2.31 ± 0.1 | 2.12 ± 0.09
x2 = 0.1001 | 1197.81 ± 9.6 | 1193.1 ± 9.6 | 1188.35 ± 9.5 | – | 4 ± 0.17 | 3.64 ± 0.15 | 3.26 ± 0.14 | 2.96 ± 0.12
x2 = 0.1497 | 1219.5 ± 9.8 | 1214.96 ± 9.7 | 1210.25 ± 9.7 | – | 5.49 ± 0.23 | 4.9 ± 0.2 | 4.41 ± 0.18 | 3.97 ± 0.16
x2 = 0.2006 | 1237.06 ± 9.9 | 1232.47 ± 9.9 | 1227.82 ± 9.8 | – | 7.48 ± 0.31 | 6.56 ± 0.27 | 5.8 ± 0.24 | 5.15 ± 0.21
x2 = 0.3037 | 1262.89 ± 10 | 1258.37 ± 10 | 1253.81 ± 10 | – | 12.83 ± 0.53 | 10.89 ± 0.45 | 9.44 ± 0.39 | 8.26 ± 0.34
x2 = 0.394 | 1278.72 ± 10 | 1274.26 ± 10 | 1269.73 ± 10 | – | – | – | – | –
x2 = 0.4952 | 1292.01 ± 10 | 1287.58 ± 10 | 1283.09 ± 10 | – | 29.29 ± 1.2 | 23.62 ± 0.96 | 19.3 ± 0.79 | 16.57 ± 0.68
x2 = 0.586 | 1300.99 ± 10 | 1296.61 ± 10 | 1292.14 ± 10 | – | – | – | – | –
x2 = 0.7007 | 1309.94 ± 10 | 1305.54 ± 10 | 1301.1 ± 10 | – | 54.57 ± 2.2 | 42.86 ± 1.7 | 34.7 ± 1.4 | 28.87 ± 1.2
x2 = 0.8081 | 1316.42 ± 11 | 1312.07 ± 11 | 1307.63 ± 10 | – | – | – | – | –
x2 = 0.9003 | 1321 ± 11 | 1316.57 ± 11 | 1312.16 ± 11 | – | 87.86 ± 3.6 | 68 ± 2.8 | 53.86 ± 2.2 | 43.53 ± 1.8
